Assays:
[1] = xn = mol fraction of the nth substance listed; settings: 101.3 kPa, Liquid; for viscosity: Capillary tube (Ostwald / Ubbelohde) method; for speed of sound: Linear variable-path acoustic interferometer; for mass density: Pycnometric method
[2] = refractive index (Na D-line) (dimensionless); xn = mol fraction of the nth substance listed; settings: 101.3 kPa, Liquid, Standard Abbe refractometry

CCN(CC)CC [triethylamine] + C1COCCO1
Settings	mass density, 298.15 K [kg/m3]	mass density, 303.15 K [kg/m3]	mass density, 308.15 K [kg/m3]	refractive index, 298.15 K	refractive index, 303.15 K	refractive index, 308.15 K	speed of sound, 298.15 K [m/s]	viscosity, 298.15 K [mPa·s]	viscosity, 303.15 K [mPa·s]	viscosity, 308.15 K [mPa·s]
[1], x2 = 0	723.1	718.5	713.6	–	–	–	1127	0.363	0.347	0.33
[1], x2 = 0.1104	744.6	739.7	734.8	–	–	–	1139	0.392	0.372	0.353
[1], x2 = 0.2044	764.5	759.5	754.6	–	–	–	1155	0.418	0.397	0.377
[1], x2 = 0.3028	787.3	782.2	777.1	–	–	–	1172	0.451	0.428	0.404
[1], x2 = 0.398	811.3	806.1	800.9	–	–	–	1189	0.494	0.466	0.438
[1], x2 = 0.4946	838	832.8	827.5	–	–	–	1210	0.542	0.512	0.481
[1], x2 = 0.5986	869.7	864.3	859	–	–	–	1234	0.613	0.575	0.538
[1], x2 = 0.6952	902.3	896.8	891.5	–	–	–	1260	0.697	0.652	0.608
[1], x2 = 0.7996	941.2	935.6	930	–	–	–	1290	0.815	0.76	0.705
[1], x2 = 0.8934	979.8	974.2	968.5	–	–	–	1318	0.958	0.889	0.821
[2], x2 = 0	–	–	–	1.3983	1.3955	1.3926	–	–	–	–
[2], x2 = 0.1104	–	–	–	1.3996	1.3969	1.3942	–	–	–	–
[2], x2 = 0.2044	–	–	–	1.4014	1.3985	1.3956	–	–	–	–
[2], x2 = 0.3028	–	–	–	1.4032	1.4002	1.3972	–	–	–	–
[2], x2 = 0.398	–	–	–	1.4048	1.402	1.3994	–	–	–	–
[2], x2 = 0.4946	–	–	–	1.4068	1.404	1.4013	–	–	–	–
[2], x2 = 0.5986	–	–	–	1.4095	1.4067	1.4041	–	–	–	–
[2], x2 = 0.6952	–	–	–	1.4117	1.409	1.4062	–	–	–	–
[2], x2 = 0.7996	–	–	–	1.4147	1.412	1.4093	–	–	–	–
[2], x2 = 0.8934	–	–	–	1.4176	1.4148	1.4121	–	–	–	–

C1COCCO1 [1,4-dioxane] + CCCCCC
Settings	mass density, 298.15 K [kg/m3]	mass density, 303.15 K [kg/m3]	mass density, 308.15 K [kg/m3]	refractive index, 298.15 K	refractive index, 303.15 K	refractive index, 308.15 K	speed of sound, 298.15 K [m/s]	viscosity, 298.15 K [mPa·s]	viscosity, 303.15 K [mPa·s]	viscosity, 308.15 K [mPa·s]
[1], x1 = 0.1135	682	677.3	672.5	–	–	–	1087	0.333	0.319	0.304
[1], x1 = 0.2057	706.4	701.4	696.5	–	–	–	1099	0.357	0.34	0.323
[1], x1 = 0.3099	736.2	731.2	726.1	–	–	–	1116	0.391	0.372	0.353
[1], x1 = 0.4032	765.7	760.5	755.3	–	–	–	1132	0.429	0.408	0.386
[1], x1 = 0.501	799.6	794.3	788.9	–	–	–	1154	0.482	0.455	0.429
[1], x1 = 0.6028	838.1	832.7	827.2	–	–	–	1185	0.549	0.517	0.485
[1], x1 = 0.7006	878.7	873.3	868	–	–	–	1220	0.634	0.596	0.557
[1], x1 = 0.7991	924	918.3	912.4	–	–	–	1257	0.753	0.705	0.656
[1], x1 = 0.8962	972.1	966.4	960.8	–	–	–	1303	0.912	0.849	0.787
[1], x1 = 1	1027.6	1021.9	1016.2	–	–	–	1347	1.166	1.069	0.984
[2], x1 = 0.1135	–	–	–	1.3758	1.3728	1.37	–	–	–	–
[2], x1 = 0.2057	–	–	–	1.3787	1.3756	1.3726	–	–	–	–
[2], x1 = 0.3099	–	–	–	1.3824	1.3795	1.3767	–	–	–	–
[2], x1 = 0.4032	–	–	–	1.3864	1.3838	1.3814	–	–	–	–
[2], x1 = 0.501	–	–	–	1.3906	1.3878	1.385	–	–	–	–
[2], x1 = 0.6028	–	–	–	1.3954	1.3928	1.3903	–	–	–	–
[2], x1 = 0.7006	–	–	–	1.4014	1.3986	1.3959	–	–	–	–
[2], x1 = 0.7991	–	–	–	1.4078	1.4048	1.4017	–	–	–	–
[2], x1 = 0.8962	–	–	–	1.414	1.4119	1.4098	–	–	–	–
[2], x1 = 1	–	–	–	1.4201	1.417	1.4143	–	–	–	–

— the NIST ThermoML archive (doi:10.1021/je030107c)
